Data on 13 compounds can be found in patent US9926297B2, “Bicyclic AZA compounds as muscarinic M1 receptor and/or M4 receptor agonists” (Heptares Therapeutics Limited, priority 2014, dated 2018).

Some results are limits rather than exact numbers.

Experiment [1] addresses human muscarinic M3 receptor (Homo sapiens, UniProt P20309). The experiment in a line: Alphascreen Surefire phospho-ERK1/2 functional assay, M3. As to conditions: for Emax: CHO, read-out: % Emax cf. ACh, M3, CHO cells stably expressing human M3; for Emax / % Emax cf. ACh, M3: relative to ACh; for EC50: pEC50 M3, CHO cells stably expressing human M3; for EC50 / pEC50 M3: phospho-ERK1/2, * = variable results; for pEC50 M3 / % Emax cf. ACh, M3: CHO cells stably expressing human M3. Background: Bead proximity is the source of the signal in Alpha formats.
Procedure: (§1) CHO cells stably expressing the human muscarinic M1, M2, M3 or M4 receptor were plated (25K/well) onto 96-well tissue culture plates in MEM-alpha+10% dialysed FBS. Once adhered, cells were serum-starved overnight. Agonist stimulation was performed by the addition of 5 μL agonist to the cells for 5 min (37° C.). Media was removed and 50 μL of lysis buffer added. After 15 min, a 4 μL sample was transferred to 384-well plate and 7 μL of detection mixture added. Plates were incubated for 2 h with gentle agitation in the dark and then read on a PHERAstar plate reader.
(§2) pEC50 and Emax figures were calculated from the resulting data for each receptor subtype.

Experiment [2] deals with T1, human muscarinic M2 receptor (Homo sapiens, UniProt P08172).
T1 sequence (P08172 1-466): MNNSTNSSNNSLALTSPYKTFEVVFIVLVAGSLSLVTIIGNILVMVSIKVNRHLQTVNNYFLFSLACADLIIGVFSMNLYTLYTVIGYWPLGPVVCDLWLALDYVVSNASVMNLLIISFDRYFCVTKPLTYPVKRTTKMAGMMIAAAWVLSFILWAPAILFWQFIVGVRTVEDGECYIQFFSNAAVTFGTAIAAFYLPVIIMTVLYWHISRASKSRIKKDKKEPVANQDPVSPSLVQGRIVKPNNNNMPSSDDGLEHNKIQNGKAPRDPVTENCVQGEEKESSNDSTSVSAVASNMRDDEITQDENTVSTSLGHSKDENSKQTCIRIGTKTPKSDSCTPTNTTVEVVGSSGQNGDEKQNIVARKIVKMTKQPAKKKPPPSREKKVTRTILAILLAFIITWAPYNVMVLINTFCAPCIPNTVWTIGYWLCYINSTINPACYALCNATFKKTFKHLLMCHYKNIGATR
The experiment in a line: Alphascreen Surefire phospho-ERK1/2 functional assay, M2. The following applies: for Emax: CHO, read-out: % Emax cf. ACh, M2, CHO cells stably expressing human M2; for Emax / % Emax cf. ACh, M2: relative to ACh; for pEC50 M2 / % Emax cf. ACh, M2: CHO cells stably expressing human M2; for pEC50 M2: phospho-ERK1/2, * = variable results.
Procedure: as §1, §2

Experiment [3] deals with T2, human muscarinic M1 receptor (Homo sapiens, UniProt P11229).
T2 sequence (P11229 1-460): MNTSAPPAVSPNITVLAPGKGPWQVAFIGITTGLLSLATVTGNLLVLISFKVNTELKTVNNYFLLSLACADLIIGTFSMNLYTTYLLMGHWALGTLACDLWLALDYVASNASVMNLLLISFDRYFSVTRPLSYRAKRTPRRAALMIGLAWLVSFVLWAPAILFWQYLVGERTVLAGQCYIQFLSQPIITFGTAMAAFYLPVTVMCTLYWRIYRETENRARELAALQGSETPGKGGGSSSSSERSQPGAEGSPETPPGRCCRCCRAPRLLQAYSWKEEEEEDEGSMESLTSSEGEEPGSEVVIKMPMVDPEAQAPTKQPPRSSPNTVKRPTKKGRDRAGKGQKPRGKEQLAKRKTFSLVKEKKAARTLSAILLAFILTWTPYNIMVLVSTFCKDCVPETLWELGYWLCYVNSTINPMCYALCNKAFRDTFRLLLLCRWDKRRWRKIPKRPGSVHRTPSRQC
The experiment in a line: Alphascreen Surefire phospho-ERK1/2 functional assay, M1. The experiment is classed as cell-based. As to conditions: for EC50: read-out: pEC50 M1 (converted); for Emax: CHO, read-out: % Emax cf. ACh, M1, CHO cells stably expressing human M1; for Emax / % Emax cf. ACh, M1: relative to ACh.

The target in experiment [4] is T3, human muscarinic M4 receptor (Homo sapiens, UniProt P08173).
T3 construct: expressed in transfected cells
T3 sequence (P08173 1-479): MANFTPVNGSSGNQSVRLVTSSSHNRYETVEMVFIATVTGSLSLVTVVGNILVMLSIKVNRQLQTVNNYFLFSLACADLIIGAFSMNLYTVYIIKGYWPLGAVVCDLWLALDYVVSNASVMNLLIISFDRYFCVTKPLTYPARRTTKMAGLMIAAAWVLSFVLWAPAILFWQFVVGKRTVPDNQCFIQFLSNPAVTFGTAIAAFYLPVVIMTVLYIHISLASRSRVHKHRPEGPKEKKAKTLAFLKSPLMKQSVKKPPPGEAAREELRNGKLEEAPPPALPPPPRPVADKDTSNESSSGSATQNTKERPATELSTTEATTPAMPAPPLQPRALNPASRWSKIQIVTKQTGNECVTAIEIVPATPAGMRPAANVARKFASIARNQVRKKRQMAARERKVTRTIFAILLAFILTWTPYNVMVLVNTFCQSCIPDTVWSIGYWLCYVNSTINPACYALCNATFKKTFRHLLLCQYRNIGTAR
The experiment in a line: Alphascreen Surefire phospho-ERK1/2 functional assay, M4. The experiment is classed as cell-based. The following applies: for EC50: read-out: pEC50 M4 (converted); for Emax: CHO, read-out: % Emax cf. ACh, M4, CHO cells stably expressing human M4; for Emax / % Emax cf. ACh, M4: relative to ACh.

The mark [5] stands for this setting: CHO cells stably expressing human M1, phospho-ERK1/2, * = variable results.
[6] abbreviates: CHO cells stably expressing human M4, phospho-ERK1/2, * = variable results.
The mark [7] stands for this setting: CHO cells stably expressing human M1.
Where [8] appears, read: CHO cells stably expressing human M4.

What is called Emax is the size of the effect at its maximum, as opposed to the concentration needed.

Sequence of human muscarinic M3 receptor (P20309 whole entry): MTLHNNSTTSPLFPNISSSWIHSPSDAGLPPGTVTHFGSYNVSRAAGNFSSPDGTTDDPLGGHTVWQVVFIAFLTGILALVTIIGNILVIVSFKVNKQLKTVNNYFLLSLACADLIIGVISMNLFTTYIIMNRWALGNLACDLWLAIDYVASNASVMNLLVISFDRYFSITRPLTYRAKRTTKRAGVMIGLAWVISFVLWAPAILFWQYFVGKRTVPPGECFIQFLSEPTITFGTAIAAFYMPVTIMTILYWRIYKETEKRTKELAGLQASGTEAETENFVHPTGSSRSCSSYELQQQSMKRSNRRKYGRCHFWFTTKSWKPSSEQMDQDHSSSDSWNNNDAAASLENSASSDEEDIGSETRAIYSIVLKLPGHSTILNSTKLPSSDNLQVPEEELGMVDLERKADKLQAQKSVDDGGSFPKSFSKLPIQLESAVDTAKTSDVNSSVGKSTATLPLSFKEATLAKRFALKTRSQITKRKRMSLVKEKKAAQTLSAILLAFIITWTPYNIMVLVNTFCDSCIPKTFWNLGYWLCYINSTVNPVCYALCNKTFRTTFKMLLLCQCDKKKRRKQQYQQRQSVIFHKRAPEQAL

Take `CNC(=O)N1CCC[C@H]1C1CCN(C2CC3(CCN(C(=O)OC)C3)C2)CC1` (single isomer, unassigned) [2-15 Isomer 2]: the Emax in experiment [1] was determined as 9%; in experiment [2] it was 9%; in experiment [3], 72%; in experiment [4], 111%. Moreover, the EC50 is above 20 µM in experiment [1], above 20 µM in experiment [2], 398 nM in experiment [3] (setting [5]) and 15.8 nM in experiment [4] (setting [6]).

On to `CCOC(=O)N1CCC2(CC(N3CCC([C@@H]4CCCN4C(=O)NCC(F)(F)F)CC3)C2)C1` (single isomer, unassigned) [2-26 Isomer 2], for which the maximum response (Emax) worked out at 4% in experiment [1], 66% in experiment [2], 92% in experiment [3] and 99% in experiment [4]. Further, the EC50 was above 20 µM in experiment [1], above 20 µM in experiment [2], 12.6 nM in experiment [3] (setting [5]) and 6.31 nM in experiment [4] (setting [6]).

Consider `CCOC(=O)N1CCC2(CC(N3CCC([C@@H]4CCCN4C(=O)N(C)OC)CC3)C2)C1` (single isomer, unassigned) [2-34 Isomer 2], for which, in experiment [1], the “pEC50 M3” value is reported as below 4.7 and the “% Emax cf. ACh, M3” value worked out at 39%. For the same compound, in experiment [2], the “pEC50 M2” value is listed as below 4.7 and the “% Emax cf. ACh, M2” value was 3%. Also, in experiment [3] (setting [5]), the EC50 is 3160 nM. Also, in experiment [3] (setting [7]), the “% Emax cf. ACh, M1” value was found to be 56%. Further, the EC50 in experiment [4] (setting [6]) was 251 nM. For the same compound, in experiment [4] (setting [8]), the “% Emax cf. ACh, M4” value worked out at 58%.

In the case of `CCOC(=O)N1CCC2(CC(N3CCC(C#N)(c4ccccn4)CC3)C2)C1` (single isomer, unassigned; isomer 1) [3-10 Isomer 1], in experiment [1], the “pEC50 M3” value is listed as below 4.7 and the “% Emax cf. ACh, M3” value turned out to be 5%. In experiment [2], the “pEC50 M2” value was below 4.7 and the “% Emax cf. ACh, M2” value stood at 3%. Further, the “pEC50 M1” value in experiment [3] (setting [5]) came to 5.9. In experiment [3] (setting [7]), the “% Emax cf. ACh, M1” value came out at 42%. Besides, the “pEC50 M4” value in experiment [4] (setting [6]) is given as 7.1. Besides, in experiment [4] (setting [8]), the “% Emax cf. ACh, M4” value worked out at 71%.

Regarding `CCOC(=O)N1CCC2(CC(N3CCC([C@@H]4CCCN4CCC(F)(F)F)CC3)C2)C1` (single isomer, unassigned) [2-70 Isomer 2], the maximal response (Emax) came to 3% in experiment [1] and 1% in experiment [2]. Moreover, the EC50 in experiment [1] is above 20 µM; in experiment [2], above 20 µM; in experiment [3] (setting [5]), 1580 nM; in experiment [4] (setting [6]), 31.6 nM. In experiment [3] (setting [7]), the “% Emax cf. ACh, M1” value amounted to 93%. Moreover, the “% Emax cf. ACh, M4” value in experiment [4] (setting [8]) was 111%.

As for `CCOC(=O)N1CCC2(CC(N3CCC([C@@H]4CCCN4C(=O)NCCF)CC3)C2)C1` (single isomer, unassigned) [2-44 Isomer 2], the Emax in experiment [1] amounted to 8%; in experiment [2], 4%; in experiment [3] it was 71%; in experiment [4], 100%. The EC50 is above 20 µM in experiment [1], above 20 µM in experiment [2], 316 nM in experiment [3] (setting [5]) and 5.01 nM in experiment [4] (setting [6]).

As for `CCOC(=O)N1CCC2(CC(N3CCC([C@@H]4CCCN4C(=O)NC4CCC4)CC3)C2)C1` (single isomer, unassigned) [2-30 Isomer 2], the Emax in experiment [1] was 13%; in experiment [2] it was 52%; in experiment [3] it was 34%; in experiment [4], 97%. In addition, the EC50 in experiment [1] was above 20 µM; in experiment [2], above 20 µM; in experiment [3] (setting [5]), 501 nM; in experiment [4] (setting [6]), 15.8 nM.

Turning to `CCOC(=O)N1CCC2(CC(N3CCC([C@@H]4CCCN4C(=O)N4CCC4)CC3)C2)C1` (single isomer, unassigned) [2-27 Isomer 2], the maximum response (Emax) in experiment [1] worked out at 15%; in experiment [2], 0.4%; in experiment [3] it was 24%; in experiment [4], 73%. In addition, the EC50 was above 20 µM in experiment [1], above 20 µM in experiment [2], 31.6 nM in experiment [3] (setting [5]) and 10 nM in experiment [4] (setting [6]).

With `CCOC(=O)N1CCC2(CC(N3CCC(c4cscn4)CC3)C2)C1` (single isomer, unassigned) [1-50 Isomer 2, ethyl 2-[4-(1,3-thiazol-4-yl)piperidin-1-yl]-6-azaspiro[3.4]octane-6-carboxylate], the Emax in experiment [1] stood at 8%; in experiment [2], 20%; in experiment [3] it was 124%; in experiment [4], 122%. For the same compound, the EC50 in experiment [1] is above 20 µM; in experiment [2], above 20 µM; in experiment [3] (setting [5]) it was 7.94 nM; in experiment [4] (setting [6]) it was 2 nM.

In the case of `CCOC(=O)N1CCC2(CC(N3CCC(N4CCCC(F)(F)C4)CC3)C2)C1` (single isomer, unassigned) [4-13 Isomer 2, ethyl 2-(3,3-difluoro-1,4′-bipiperidin-1′-yl)-6-azaspiro[3.4]octane-6-carboxylate], the maximum response (Emax) in experiment [1] was 13%; in experiment [2], 10%; in experiment [3], 51%; in experiment [4] it was 59%. For the same compound, the EC50 was above 20 µM in experiment [1], above 20 µM in experiment [2], 631 nM in experiment [3] (setting [5]) and 100 nM in experiment [4] (setting [6]).

Consider `CCOC(=O)N1CCC2(CC(N3CCC(c4nn(C)cc4C)CC3)C2)C1` (single isomer, unassigned) [1-56 Isomer 2, ethyl 2-[4-(1,4-dimethyl-1H-pyrazol-3-yl)piperidin-1-yl]-6-azaspiro[3.4]octane-6-carboxylate], for which the Emax in experiment [1] came to 3%; in experiment [2], 0%; in experiment [3], 30%; in experiment [4], 89%. The EC50 in experiment [1] is above 20 µM; in experiment [2], above 20 µM; in experiment [3] (setting [5]) it was 1000 nM; in experiment [4] (setting [6]) it was 126 nM.

In the case of `CCOC(=O)N1CCC2(CC(N3CCC(n4cc(C)cn4)CC3)C2)C1` (single isomer, unassigned) [1-34 Isomer 2, ethyl 2-[4-(4-methyl-1H-pyrazol-1-yl)piperidin-1-yl]-6-azaspiro[3.4]octane-6-carboxylate], in experiment [1], the “pEC50 M3” value is reported as below 4.7 and the “% Emax cf. ACh, M3” value turned out to be 0%. Further, in experiment [2], the “pEC50 M2” value is recorded as below 4.7 and the “% Emax cf. ACh, M2” value worked out at 43%. The EC50 in experiment [3] (setting [5]) was 7.94 nM. Moreover, the “% Emax cf. ACh, M1” value in experiment [3] (setting [7]) worked out at 130%. The EC50 in experiment [4] (setting [6]) is 2.51 nM. For the same compound, the “% Emax cf. ACh, M4” value in experiment [4] (setting [8]) is 117%.

In the case of `CCOC(=O)N1CCC2(CC(N3CCC([C@@H]4C[C@H](F)CN4C(=O)CC)CC3)C2)C1` (single isomer, unassigned) [2-59 Isomer 2], the Emax in experiment [1] stood at 7%; in experiment [2], 11%; in experiment [3] it was 28%; in experiment [4], 67%. Moreover, the EC50 in experiment [1] was above 20 µM; in experiment [2], above 20 µM; in experiment [3] (setting [5]), 3160 nM; in experiment [4] (setting [6]), 251 nM.
